Calls of active or inactive are those of the source. The rule behind the calls is not given here. Some results are limits rather than exact numbers.

For data set [1], the species on record is Homo sapiens. Briefly: Inhibition of […] pathway in human PC3 cells assessed as phosphorylation of AKT at ser473 residues at 100 uM after 1 hr by PerCP probe based flow cytometric analysis (reference value: 43.92%). Format: cell-based.
The test system of the next data set is PC-3. Kind of data set: Cytotoxicity against human PC3 cells by MTT assay. Format: functional, cell-based. On the technique in general: Tetrazolium dyes change colour on reduction, which living cells bring about.
Data set [2] is described as follows: Cytotoxicity against mouse Balb/c 3T3 clone A31 cells assessed as cell viability at 100 uM by MTT assay relative to control. Format: cell-based. To be noted: read-out: Activity.
The species named for data set [3] is Homo sapiens. Kind of data set: Inhibition of […] pathway in human PC3 cells assessed as phosphorylation of S6 at ser235 residues at 100 uM after 1 hr by alexa fluor 488 probe based flow cytometric analysis (reference value: 48.58%). Format: cell-based. Background: Flow cytometry measures light scatter and fluorescence of single cells or particles in a stream.

Data set [4] is described as follows: Selectivity index, ratio of cytotoxic concentration against mouse Balb/c 3T3 clone A31 cells to EC50 for human PC3 cells. Format: functional.
The subject of another data set is DU-145. Briefly: Cytotoxicity against human DU145 cells by MTT assay. Format: functional, cell-based.

Usually inhibition stands for the change of the read-out against control, counted positive when it falls. As a reminder, the EC50 is the midpoint of the concentration-response curve. Regarding `CO[C@H]1C[C@@H]2CC[C@@H](C)[C@@](O)(O2)C(=O)C(=O)N2CCCC[C@H]2C(=O)O[C@H]([C@H](C)C[C@@H]2CC[C@@H](O)[C@H](OC)C2)CC(=O)[C@H](C)/C=C(\C)[C@@H](O)[C@@H](OC)C(=O)[C@H](C)C[C@H](C)/C=C/C=C/C=C/1C` [SIROLIMUS], the inhibition in the data set filed under Homo sapiens [1] was found to be 28.9%; in the data set listed under Homo sapiens [3], 7.24%. This compound showed a 50% effective concentration (EC50) in the data set on PC-3 of 43.1 µM. In data set [2], the viability at 100 µM was found to be 58.3%. Further, the “Selectivity Index” value in data set [4] was greater than 2.32.

In the case of `COCC[n+]1c2c(n(Cc3cnccn3)c1C)C(=O)c1ccccc1C2=O` [SEPANTRONIUM BROMIDE], the EC50 with DU-145 came to 0.0138 µM; in the data set on PC-3, 0.092 µM.

Turning to `Cc1ccccc1SC1CCN(C(=O)c2ccc(N)nc2)CC1`, the inhibition came out at 34.8% in the data set filed under Homo sapiens [1] and 15.5% in the data set filed under Homo sapiens [3]. Also, in the data set on DU-145, the result was inactive. In the data set with PC-3, this compound came in with an EC50 of 60.7 µM. Also, the viability at 100 µM in data set [2] was 95.4%. Further, the “Selectivity Index” value in data set [4] is given as greater than 1.65.

As to `Nc1ccc(C(=O)N2CCC(Cc3ccc(F)cc3)CC2)cn1`, the inhibition in the data set listed under Homo sapiens [1] is 39.4%; in the data set filed under Homo sapiens [3], 14%. For the same compound, in the data set with DU-145, the result was inactive. The EC50 with PC-3 stood at 75 µM. Besides, the viability at 100 µM in data set [2] stood at 68.1%. Further, the “Selectivity Index” value in data set [4] is on record as greater than 1.33.

The record behind these values is ChEMBL document CHEMBL4052808, “Novel anti-prostate cancer scaffold identified by the combination of in silico and cell-based assays targeting the PI3K-AKT-mTOR pathway” (Bioorg Med Chem Lett, 2017).
